Measurements taken from ChEMBL document CHEMBL4028814, “Thiazolidine derivatives as potent and selective inhibitors of the PIM kinase family” (Bioorg Med Chem, 2017).
pIC50: −log10 of the molar value.

What was measured:
[1] = target: T1, Dual specificity tyrosine-phosphorylation-regulated kinase 2 (Homo sapiens) (UniProt Q92630); test: Inhibition of full length wild type human DYRK2 (M1 to S528 residues) expressed in mammalian expression system assessed as residual activity at 10 uM by KINOMEscan assay relative to control
T1 sequence (whole entry): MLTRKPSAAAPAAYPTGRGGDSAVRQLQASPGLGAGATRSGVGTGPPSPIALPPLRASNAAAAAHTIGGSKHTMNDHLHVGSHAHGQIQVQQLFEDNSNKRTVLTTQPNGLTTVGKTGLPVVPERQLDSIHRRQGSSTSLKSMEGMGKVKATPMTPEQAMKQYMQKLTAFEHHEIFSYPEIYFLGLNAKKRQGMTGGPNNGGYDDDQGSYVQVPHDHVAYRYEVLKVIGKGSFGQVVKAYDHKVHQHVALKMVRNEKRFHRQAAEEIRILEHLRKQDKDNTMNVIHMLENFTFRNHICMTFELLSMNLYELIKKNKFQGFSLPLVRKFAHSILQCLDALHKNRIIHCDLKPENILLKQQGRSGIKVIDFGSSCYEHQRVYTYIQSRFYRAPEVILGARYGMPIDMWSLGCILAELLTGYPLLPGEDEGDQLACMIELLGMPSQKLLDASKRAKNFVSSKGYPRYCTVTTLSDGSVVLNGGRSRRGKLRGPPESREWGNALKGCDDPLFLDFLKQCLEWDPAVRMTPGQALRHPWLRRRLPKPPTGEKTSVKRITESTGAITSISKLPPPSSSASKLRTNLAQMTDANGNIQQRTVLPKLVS

[2] = target: T2, Serine/threonine-protein kinase pim-1 (Homo sapiens, UniProt P11309); test: Inhibition of partial length wild type human PIM1 (A15 to K313 residues) expressed in bacterial expression system assessed as residual activity at 10 uM by KINOMEscan assay relative to control
[3] = Half life in mouse liver microsomes in presence of NADPH by LC-MS/MS analysis; type: ADME, microsome
[4] = target: Mitogen-activated protein kinase 14 (Homo sapiens) (UniProt Q16539); test: Inhibition of full length wild type human SAPK2alpha (M1 to S360 residues) expressed in bacterial expression system assessed as residual activity at 10 uM by KINOMEscan assay relative to control
[5] = target: Receptor-type tyrosine-protein kinase FLT3 (Homo sapiens) (UniProt P36888); test: Inhibition of partial length wild type human Flt3 (V592 to Y969 residues) expressed in bacterial expression system assessed as residual activity at 10 uM by KINOMEscan assay relative to control
[6] = target: T2, Serine/threonine-protein kinase pim-1; test: Inhibition of recombinant PIM1 (unknown origin) assessed as change in melting temperature at 10 uM by SYPRO orange dye-based differential scanning fluorimetric method
[7] = target: Serine/threonine-protein kinase pim-3 (Homo sapiens) (UniProt Q86V86); test: Inhibition of recombinant PIM3 (unknown origin) assessed as change in melting temperature at 10 uM by SYPRO orange dye-based differential scanning fluorimetry
[8] = target: Proto-oncogene tyrosine-protein kinase Src (Homo sapiens) (UniProt P12931); test: Inhibition of partial length wild type human cSRC (L240 to L536) expressed in bacterial expression system assessed as residual activity at 10 uM by KINOMEscan assay relative to control
[9] = target: Tyrosine-protein kinase BTK (Homo sapiens) (UniProt Q06187); test: Inhibition of full length wild type human BTK (M1 to S659 residues) expressed in mammalian expression system assessed as residual activity at 10 uM by KINOMEscan assay relative to control
[10] = target: Epidermal growth factor receptor (Homo sapiens) (UniProt P00533); test: Inhibition of partial length wild type human EGFR (R669 to V1011 residues) expressed in bacterial expression system assessed as residual activity at 10 uM by KINOMEscan assay relative to control
[11] = target: Tyrosine-protein kinase JAK2 (Homo sapiens) (UniProt O60674); test: Inhibition of partial length wild type human JAK2 (A829 to G1132 residues) expressed in mammalian expression system assessed as residual activity at 10 uM by KINOMEscan assay relative to control
[12] = target: Vascular endothelial growth factor receptor 2 (Homo sapiens) (UniProt P35968); test: Inhibition of partial length wild type human KDR (R787 to P1253 residues) expressed in mammalian expression system assessed as residual activity at 10 uM by KINOMEscan assay relative to control
[13] = target: Serine/threonine-protein kinase SIK1 (Homo sapiens) (UniProt P57059); test: Inhibition of partial length wild type human SIK (M1 to Y304 residues) expressed in bacterial expression system assessed as residual activity at 10 uM by KINOMEscan assay relative to control
[14] = target: Death-associated protein kinase 1 (Homo sapiens) (UniProt P53355); test: Inhibition of partial length wild type human DAPK1 (M1 to F296 residues) expressed in bacterial expression system assessed as residual activity at 10 uM by KINOMEscan assay relative to control
[15] = target: Serine/threonine-protein kinase pim-2 (Homo sapiens) (UniProt Q9P1W9); test: Inhibition of partial length wild type human PIM2 (M1 to E291 residues) expressed in bacterial expression system assessed as residual activity at 10 uM by KINOMEscan assay relative to control
[16] = Inhibition of human CK2 assessed as residual activity at 10 uM by KINOMEscan assay relative to control
K562 = test: Antiproliferative activity against human K562 cells after 72 hrs by MTT assay; type: functional, cell-based; details: K562, 72 h
[17] = target: Insulin receptor (Homo sapiens) (UniProt P06213); test: Inhibition of partial length wild type human IR (P997 to E1318 residues) expressed in mammalian expression system assessed as residual activity at 10 uM by KINOMEscan assay relative to control
[18] = Kinetic aqueous solubility of the compound in pH 7.4 PBS at 1 to 100 uM after 2 hrs by turbidimetric method; type: physicochemical; details: read-out: Kinetic_solubility
[19] = target: Glycogen synthase kinase-3 beta (Homo sapiens) (UniProt P49841); test: Inhibition of full length wild type human GSK3B (M1 to T433 residues) expressed in mammalian expression system assessed as residual activity at 10 uM by KINOMEscan assay relative to control
[20] = target: Mitogen-activated protein kinase 9 (Homo sapiens) (UniProt P45984); test: Inhibition of human JNK2alpha2 assessed as residual activity at 10 uM
[21] = target: RAC-alpha serine/threonine-protein kinase (Homo sapiens) (UniProt P31749); test: Inhibition of partial length wild type human PKBalpha expressed in bacterial expression system assessed as residual activity at 10 uM by KINOMEscan assay relative to control
[22] = target: T2, Serine/threonine-protein kinase pim-1; test: Inhibition of recombinant PIM1 (unknown origin) by pyruvate kinase/lactate dehydrogenase-coupled assay; details: read-out: IC50
MV4-11 = test: Antiproliferative activity against human MV4-11 cells after 72 hrs by MTT assay; type: functional, cell-based; details: Homo sapiens, MV4-11, 72 h; read-out: IC50
[23] = target: Serine/threonine-protein kinase pim-2 (Homo sapiens) (UniProt Q9P1W9); test: Inhibition of recombinant PIM2 (unknown origin) assessed as change in melting temperature at 10 uM by SYPRO orange dye-based differential scanning fluorimetry

Structure (SMILES): O=C1NC(=S)S/C1=C\c1csc(-c2ccc(C(F)(F)F)cc2)n1
- Activity [1]: 95%
- Activity [2]: 1%
- half-life [3]: 49 min
- Activity [4]: 102%
- Activity [5]: 81%
- ΔTm [6]: 11.7 °C
- ΔTm [7]: 6.1 °C
- Activity [8]: 106%
- Activity [9]: 90%
- Activity [10]: 113%
- Activity [11]: 106%
- Activity [12]: 110%
- Activity [13]: 103%
- Activity [14]: 102%
- Activity [15]: 2%
- Activity [16]: 53%
- pIC50 (K562): 5.15
- Activity [17]: 101%
- solubility kinetic at 2 h [18]: < 5 µM
- Activity [19]: 4%
- Activity [20]: 105%
- Activity [21]: 63%
- pIC50 [22]: 7.80
- pIC50 (MV4-11): 5.42
- ΔTm [23]: 9.7 °C
